This note sets out measurements from patent US20220249591A1, “COMPOSITION FOR THE TREATMENT OF EMOTIONAL DISORDERS” (priority 2019, published 2022).

Holding throughout (type): in vivo
Experiment [1] concerns intestinal microbiota of the stressed mice. Nature of the experiment: Composition of the fecal microbiota by analysis of the 16S rRNA. Conditions: before vs after treatment, relative to placebo group. On the procedure:
The composition of the microbiota of the animals was analyzed in order to determine the influence of the formula on the bacterial composition of the fecal microbiota of the stressed mice and to compare it with the influence of the drug or of the placebo.
The animals' feces were sampled in order for a DNA extraction to be performed (Zymo Research based kits). The V3-V4 regions of the 16S rRNA gene are amplified and sequencing is performed on an ILLUMINA MiSeq system using the 2*250 bp mode. Sequence analysis is performed after correction using SPAdes ([…]) and regrouping is performed using PEAR (Zhang J. et al. Bioinformatics 2014; 30(5): 614-20). The OTUs (Operational Taxonomic Units) are identified with the Vsearch tool (Rognes T. et al. Peer J., 2016; 4: e2584), the taxonomic classification arising therefrom was performed by means of the RDP (Ribosomal Database Project) database.
The majority of the diversity studies based on 16S rDNA define the OTUs as being sets of sequences having at least 97% identity with each other. The OTUs are, in point of fact, the unit for measuring the specific richness in microbial ecology.
The statistical analyses were performed using the R program (Team RDC. R: A Language and Environment for Statistical Computing. 2012, Austria: R Foundation for Statistical Computing) and various packets (Ade4, Vegan). […]

Experiment [2] relates to 6-month-old stressed mice (UCMS). Nature of the experiment: Open field test (anxiety behavior) in UCMS-stressed mice. Conditions: induced model (UCMS) mice, n = 12, after 21 days of daily oral gastric intubation (glutamine 24 mg, curcuma extract 1.2 mg, L. rhamnosus GG 0.120 mg per mouse); clomipramine 10 mg/kg intraperitoneal; 5 min session. The procedure: The solutions were administered orally by gastric intubation to mice (1 tube-feed per day).
The preparation of the solutions is performed extemporaneously and the administration is performed in the morning. During the behavioral sessions, the solutions are administered one hour before the start of the session. The gastric incubation always takes place in a different room from the one in which the behavioral test is performed.
In order to evaluate the results obtained with the solutions, one group of mice received a parenteral administration of a tricyclic antidepressant (clomipramine). The mice were divided into independent groups according to the following treatments:
For each group, the administration of the various solutions lasts 21 consecutive days (3 weeks). The behavioral tests are performed 4 weeks after induction of the model (“elevated plus maze” and “tail suspension”) and 3 weeks after the daily intubations (“open field” and “forced swim”).
The open field test is a circular arena (ø 1 m) surrounded by an opaque wall 25 cm tall placed in a room with uniform lighting of 70 lux. The mice are placed facing the wall at the periphery of the arena and can explore freely for 5 minutes. The area of the open field is practically divided into a peripheral zone (12 cm wide) and a central zone (the remaining area of the arena). The time (in seconds) spent in the central zone is automatically noted by videotracking. The more time a mouse spends in the central zone, the less anxious it is.
The anxiety behavior was evaluated by means of the open field test. The mean time spent by the mice at the center of the apparatus is measured.

Experiment [3] has the same test system. Nature of the experiment: Forced swim test (Porsolt; depressive behavior) in UCMS-stressed mice. The procedure:
The solutions were administered orally by gastric intubation to mice (1 tube-feed per day). The preparation of the solutions is performed extemporaneously and the administration is performed in the morning. During the behavioral sessions, the solutions are administered one hour before the start of the session. The gastric incubation always takes place in a different room from the one in which the behavioral test is performed. […] The mice were divided into independent groups according to the following treatments: For each group, the administration of the various solutions lasts 21 consecutive days (3 weeks). The behavioral tests are performed 4 weeks after induction of the model (“elevated plus maze” and “tail suspension”) and 3 weeks after the daily intubations (“open field” and “forced swim”). The forced swim test (Porsolt) is a test commonly used for evaluating depressive behavior in mice. This test is based on behavioral despair. […] An animal displaying depressive behaviour will spend more time immobile than the non-depressive control mouse. After the session, the animal is dried and placed under warm light. Three parameters for evaluating the depressive behaviour are noted: the time spent swimming, the time spent climbing and the time spent immobile for each animal and also their respective percentage.

[4] abbreviates: induced model (UCMS) mice, n = 12, after 21 days of daily oral gastric intubation, clomipramine 10 mg/kg intraperitoneal, 6 min session.

Marks after values point to notes of the source that are not given here.

As for `CN(C)CCCN1c2ccccc2CCc2ccc(Cl)cc21` [Clomipramine, reference compound], in experiment [1], the “Beta-diversity of the intestinal microbiota (PCoA), change of microbiotal profile, in words” value is “would stabilize the dysbiosis induced by the 4 weeks of stress relative to the placebo group”. Moreover, in experiment [2], the “Open field test Mean (seconds): time spent in the central zone” value (shortened to “Open field test Mean (seconds)”) was determined as 56.8 s. In experiment [3] (compared with the other groups, 21 days treatment), the “Forced swim test swimming time, effect in words” value is given as “spending more time swimming when compared with the other groups”.

As to `NC(=O)CC[C@H](N)C(=O)O` [Glutamine], in experiment [2], the “Open field test Mean (seconds)” value was determined as 42.9 s.

As to Lactobacillus rhamnosus GG, in experiment [2], the “Open field test Mean (seconds)” value amounted to 41.6 s. In experiment [3] (setting [4]), the “Forced swim test Climbing (dry)” value is given as 113.5* s, the “Forced swim test Immobility (dry)” value is listed as 106.8* s and the “Forced swim test Swimming (dry)” value amounted to 139.8 s.
